Structures can show the parent of a compound that is named as a salt.
Tests used:
[1] = target: T1, α1A (rat submaxillary gland) (Rattus norvegicus, UniProt P43140); assay: Radioligand binding with [3H]-prazosin, α1A; conditions: rat submaxillary gland, [3H]-prazosin
T1 construct: α1A (rat submaxillary gland); from tissue; host or cells: rat submaxillary gland
T1 sequence (P43140 1-466): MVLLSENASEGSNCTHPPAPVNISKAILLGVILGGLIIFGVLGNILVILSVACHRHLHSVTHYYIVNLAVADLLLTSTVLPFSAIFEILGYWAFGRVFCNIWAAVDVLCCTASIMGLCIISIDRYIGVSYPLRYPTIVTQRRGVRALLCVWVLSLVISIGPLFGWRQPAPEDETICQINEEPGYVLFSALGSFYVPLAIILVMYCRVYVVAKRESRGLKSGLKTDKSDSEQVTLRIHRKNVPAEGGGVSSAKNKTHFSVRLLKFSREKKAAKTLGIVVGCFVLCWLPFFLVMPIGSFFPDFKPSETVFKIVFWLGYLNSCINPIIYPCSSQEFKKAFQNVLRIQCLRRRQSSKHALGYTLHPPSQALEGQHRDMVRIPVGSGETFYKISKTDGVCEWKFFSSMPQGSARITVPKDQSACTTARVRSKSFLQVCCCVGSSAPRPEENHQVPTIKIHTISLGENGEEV
Method in brief: (§1)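 Radioligand binding with [3H]-prazosin: α1A from rat submaxillary gland; α1b hamster receptor and α1d rat receptor, each expressed in mouse fibroblasts.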

Anesthetized Dogs [2] = assay: Intraurethral pressure (IUP) in anesthetized dogs; format: in vivo, dog; conditions: anesthetized female dogs, iv
Source text: (§2) In vivo Functional Assays-Assessment of Intrurethral Pressure (IUP) and Mean Arterial Pressure (MAP) in Anesthetized Dogs
(§3) Female dogs (Marshall Farms, North Rose, N.Y.) greater that 2 years of age and weighing between 12 and 15 kg were used in these studies. At least 2 weeks prior to any agonist dosing, dogs were instrumented for the chronic measurement of arterial blood pressure by implanting a telemetry transducer/transmitter (TA11PA-C40, Data Sciences International, St. Paul, Minn.) into a carotid artery.
(§4) On the test day, dogs fasted since the previous afternoon were pre-anesthetized with thiopental sodium 15 mg/kg i.v. (Pentothal™, Abbott) and intubated. Anesthesia was maintained by allowing the dog to spontaneously breathe a mixture of isoflurane (2.5 to 3 volume %) and oxygen delivered by a Narkomed Standard anesthesia system (North American Drager, Telford, Pa.). An Abbocath-T™ i.v. catheter (18-G, Abbott) was inserted into the cephalic vein for the administration of agonists. A telemetry receiver (RA1310, DataSciences) was placed under the head of each dog and was interfaced to a computerized data acquisition system (Modular Instruments Inc.(MI2), Malvern, Pa.) which allowed for the continuous calibrated recording of arterial blood pressure which was electronically filtered to determine its mean value (MAP).
(§5) Dogs with chronic telemetry implants anesthetized as described above were placed in dorsal recumbency and a balloon catheter was inserted into the urethral orifice and advanced approximately 15 cm until the tip was well inside the bladder. The balloon was then inflated with 1 ml of room air and the catheter slowly withdrawn until resistance (corresponding to the bladder neck) was evident. The balloon was then deflated and the catheter withdrawn an additional 2 cm. The balloon was then reinflated and its catheter port connected to a Gould Statham P23Dd pressure transducer interfaced to a computerized data acquisition system (Modular Instruments, Inc., Malvern, Pa.) for the measurement of intraurethral pressure. Increasing iv doses of test agonists were administered and the maximum effect of each dose on IUP was recorded. The effect of each dose was allowed to return to baseline before the next dose was given.
(§6) From the resulting dose response curve, an ED5 value, for the dose causing a maximum increase in IUP of 5 mm Hg, could be estimated. An ED20 value for the dose causing a maximum increase in MAP of 20 mm Hg could also be estimated. A selectivity ratio of MAP ED20 vs. IUP ED5 was calculated.

α1A (rabbit urethra) = target: T2, α1A (rabbit urethra) (Oryctolagus cuniculus, UniProt O02824); assay: Agonist contraction of smooth muscle tissue, rabbit urethra; format: cell-based; conditions: rabbit urethra; read-out: Agonist Tissue Response (pD2) α1A (rab ureth) (converted)
T2 construct: tested for α1A functional activity using rabbit urethra; from tissue; host or cells: rabbit urethra
T2 sequence (O02824 1-466): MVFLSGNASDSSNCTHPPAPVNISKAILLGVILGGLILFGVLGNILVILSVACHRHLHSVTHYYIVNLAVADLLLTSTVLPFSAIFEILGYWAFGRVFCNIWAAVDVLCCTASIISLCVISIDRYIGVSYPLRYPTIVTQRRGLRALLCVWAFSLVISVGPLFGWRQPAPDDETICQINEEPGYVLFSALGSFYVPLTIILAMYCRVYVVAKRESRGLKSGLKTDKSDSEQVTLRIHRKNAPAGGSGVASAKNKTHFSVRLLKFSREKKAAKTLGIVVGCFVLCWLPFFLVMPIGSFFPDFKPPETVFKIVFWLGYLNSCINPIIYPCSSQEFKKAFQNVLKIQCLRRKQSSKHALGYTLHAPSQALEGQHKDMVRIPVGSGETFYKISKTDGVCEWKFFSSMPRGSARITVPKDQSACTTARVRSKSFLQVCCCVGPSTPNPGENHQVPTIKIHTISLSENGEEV
Protocol: Most of the compounds were tested for α1A functional activity using rabbit urethra as follows. Female New Zealand white rabbits (2.0-3.5 Kg) were sedated with CO2 and decapitated. […] Subsequent experimental conditions were as described above for the other tissues. Agonist concentration response curves were cumulative except for the vas deferens assay in which the transient response made such measurements impractical.

Anesthetized Dogs [3] = assay: Mean arterial pressure (MAP) in anesthetized dogs; format: in vivo, dog; conditions: iv dose causing a maximum increase in MAP of 20 mm Hg, anesthetized female dogs
Source text: as §2, §3, §4, §5, §6

Anesthetized Dogs [4] = assay: Intraurethral pressure (IUP) in anesthetized dogs; format: in vivo, dog; conditions: Canis lupus familiaris; iv dose causing a maximum increase in IUP of 5 mm Hg, anesthetized female dogs; read-out: Mean IUP ED5
α1B (rat spleen) = target: T3, α1B (rat spleen) (Rattus norvegicus, UniProt P15823); assay: Agonist contraction of smooth muscle tissue, rat spleen; format: cell-based; conditions: rat spleen; read-out: Agonist Tissue Response (pD2) α1B (rat spleen) (converted)
T3 construct: α1B (rat spleen) and α1D (rat aorta) receptors; from tissue; host or cells: rat spleen
T3 sequence (P15823 1-515): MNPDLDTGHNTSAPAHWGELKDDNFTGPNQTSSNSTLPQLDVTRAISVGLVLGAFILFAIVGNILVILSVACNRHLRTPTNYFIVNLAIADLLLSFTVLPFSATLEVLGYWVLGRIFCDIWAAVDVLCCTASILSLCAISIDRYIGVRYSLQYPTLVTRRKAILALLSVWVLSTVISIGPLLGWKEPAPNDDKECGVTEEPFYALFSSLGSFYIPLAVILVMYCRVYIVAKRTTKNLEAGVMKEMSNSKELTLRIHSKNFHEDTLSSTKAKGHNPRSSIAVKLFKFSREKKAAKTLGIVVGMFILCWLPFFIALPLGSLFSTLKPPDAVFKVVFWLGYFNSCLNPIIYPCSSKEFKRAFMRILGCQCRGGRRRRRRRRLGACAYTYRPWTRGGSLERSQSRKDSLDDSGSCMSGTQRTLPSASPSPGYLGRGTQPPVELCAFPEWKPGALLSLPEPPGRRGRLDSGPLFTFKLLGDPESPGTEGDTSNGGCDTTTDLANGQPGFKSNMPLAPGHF

[5] = target: T4, α1d (rat receptor expressed in mouse fibroblasts) (Rattus norvegicus, UniProt P23944); assay: Radioligand binding with [3H]-prazosin, α1d; conditions: rat receptor expressed in mouse fibroblasts, [3H]-prazosin; read-out: Radioligand Binding Ki α1d (Rat)
T4 construct: expressed in transfected cells; host or cells: mouse fibroblasts
T4 sequence (P23944 1-561): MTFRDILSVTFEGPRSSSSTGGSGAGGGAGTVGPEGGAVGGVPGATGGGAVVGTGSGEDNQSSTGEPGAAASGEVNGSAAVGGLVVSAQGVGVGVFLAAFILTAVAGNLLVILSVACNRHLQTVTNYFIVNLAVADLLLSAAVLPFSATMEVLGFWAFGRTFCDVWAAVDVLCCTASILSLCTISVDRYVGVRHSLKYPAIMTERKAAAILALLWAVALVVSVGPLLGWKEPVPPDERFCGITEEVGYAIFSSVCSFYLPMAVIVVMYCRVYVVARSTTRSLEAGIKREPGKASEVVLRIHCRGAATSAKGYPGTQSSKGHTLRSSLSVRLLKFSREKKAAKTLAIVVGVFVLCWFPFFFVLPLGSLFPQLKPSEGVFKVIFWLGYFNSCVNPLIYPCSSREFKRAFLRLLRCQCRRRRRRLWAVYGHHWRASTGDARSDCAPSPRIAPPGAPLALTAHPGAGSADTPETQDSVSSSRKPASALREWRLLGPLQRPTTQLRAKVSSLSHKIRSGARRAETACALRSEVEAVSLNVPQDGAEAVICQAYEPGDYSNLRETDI
Method in brief: as §1

[6] = target: T5, α1b (hamster receptor expressed in mouse fibroblasts) (Mesocricetus auratus, UniProt P18841); assay: Radioligand binding with [3H]-prazosin, α1b; conditions: hamster receptor expressed in mouse fibroblasts, [3H]-prazosin; read-out: Radioligand Binding Ki α1b (Hamster)
T5 construct: expressed in transfected cells; host or cells: mouse fibroblasts
T5 sequence (P18841 1-515): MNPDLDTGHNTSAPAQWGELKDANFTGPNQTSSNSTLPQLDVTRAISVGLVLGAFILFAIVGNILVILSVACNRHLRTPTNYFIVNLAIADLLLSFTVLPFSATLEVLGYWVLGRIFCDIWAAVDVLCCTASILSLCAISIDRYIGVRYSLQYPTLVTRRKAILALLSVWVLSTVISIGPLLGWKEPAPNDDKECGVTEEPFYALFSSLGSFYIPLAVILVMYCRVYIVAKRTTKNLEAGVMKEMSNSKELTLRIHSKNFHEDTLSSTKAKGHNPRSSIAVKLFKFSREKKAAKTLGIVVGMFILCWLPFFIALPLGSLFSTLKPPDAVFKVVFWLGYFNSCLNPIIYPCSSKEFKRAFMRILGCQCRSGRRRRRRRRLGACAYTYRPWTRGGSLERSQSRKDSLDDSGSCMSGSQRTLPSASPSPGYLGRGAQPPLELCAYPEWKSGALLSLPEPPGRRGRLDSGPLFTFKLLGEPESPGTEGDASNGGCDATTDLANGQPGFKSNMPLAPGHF
Protocol: For purposes of discussing α1 adrenoceptor subtypes, the IUPHAR convention of using lower case letters to define molecular clones and upper case letters to indicate pharmacologically defined adrenoceptors has been followed. Compounds of formula I were evaluated in radioligand binding assays specific for α1A (rat submaxillary gland), α1b (hamster receptor expressed in mouse fibroblasts) and α1d (rat receptor expressed in mouse fibroblasts) using [^3H]-prazosin as the radioligand as described in Knepper, et al. J. Pharm.

α1D (rat aorta) = target: T6, α1D (rat aorta) (Rattus norvegicus, UniProt P23944); assay: Agonist contraction of smooth muscle tissue, rat aorta; format: cell-based; conditions: rat aorta, endothelium removed; read-out: Agonist Tissue Response (pD2) α1D (rat aorta) (converted)
T6 construct: α1B (rat spleen) and α1D (rat aorta) receptors; from tissue; host or cells: rat aorta strips, endothelium removed
T6 sequence (P23944 1-561): T4 sequence (P23944 1-561)

CN(c1cccc2c1CCCC2c1c[nH]cn1)S(C)(=O)=O (stereo not drawn) (as salt: maleate) [Example 15, N-[5,6,7,8-tetrahydro-5-(1H-imidazol-4-yl)-1-naphthalenyl]-N-methylmethanesulfonmamide, maleate]
melting point: 146 to 147 °C

O=C(Nc1cccc2c1CCCC2c1c[nH]cn1)C(F)(F)F (stereo not drawn) (as salt: maleate) [Example 17, 2,2,2-trifluoro-N-[5-(1H-imidazol-4-yl)-5,6,7,8-tetahydro-1-naphthalenyl]acetamide, maleate]
melting point: 181 to 182 °C

COc1ccc(NS(C)(=O)=O)c2c1C(c1c[nH]cn1)CCC2 (stereo not drawn) (as salt: maleate) [Example 26, N-[5,6,7,8-tetrahydro-(1H-imidazol-4-yl)-4-methoxyy-1-naphthalenyl]methanesulfonamide, maleate]
melting point: 181 to 184 °C

C=C(c1cccc(NS(=O)(=O)CC)c1)c1c[nH]cn1 (as salt: maleate) [Example 45, N-{3-[1-(1H-imidazol-4-yl)vinyl]phenyly}ethanesulfonamide, maleate]
melting point: 151 to 155 °C

O=S(=O)(CC(F)(F)F)Nc1cccc2c1CCCC2c1c[nH]cn1 (single isomer, unassigned; (+)) [Example 36, (+)-N-[5,6,7,8-tetrahydro-5-(1H-imidazol-4-yl)-1-naphthalenyl]-2,2,2-trifluoroethanesulfonamide]
Ki [1]: 0.124 µM
Mean Selectivity Ratio MAP ED20/IUP ED5 (Anesthetized Dogs [2]): 3.6
EC50 (α1A (rabbit urethra)): 1.86 µM
Mean MAP ED20 (Anesthetized Dogs [3]): 508 nmol/kg
ED (5 mmHg IUP increase) (Anesthetized Dogs [4]): 0.156 µmol/kg

Cl.Cn1cnc(C2CCCc3c(NS(C)(=O)=O)cccc32)c1 (stereo not drawn) [Example 14, N-[5,6,7,8-tetrahydro-5-(1-methyl-1H-imidazol-4-yl)-1-naphthalenyl]methanesulfonamide, hydrochloride]
EC50 (α1B (rat spleen)): > 1000 µM
Ki [5]: 1.04 µM
Ki [1]: 0.277 µM
Mean MAP ED20 (Anesthetized Dogs [3]): >1000 nmol/kg
Ki [6]: 2.02 µM
ED (5 mmHg IUP increase) (Anesthetized Dogs [4]): > 1 µmol/kg
EC50 (α1D (rat aorta)): > 1000 µM

CC(=O)Nc1cccc2c1CCCC2c1c[nH]cn1.O=C(O)/C=C\C(=O)O (stereo not drawn) [Example 16, N-[5,6,7,8-tetrahydro-5-(1H-imidazol-4-yl)-1-naphthalenyl]acetamide, maleate]
Mean MAP ED20 (Anesthetized Dogs [3]): 220 nmol/kg
ED (5 mmHg IUP increase) (Anesthetized Dogs [4]): 0.0684 µmol/kg

CCS(=O)(=O)Nc1cccc(Cc2c[nH]cn2)c1.O=C(O)/C=C\C(=O)O [Example 30, N-[3-(1H-imidazol-4-ylmethyl)phenyl]ethanesulfonamide, maleate]
EC50 (α1B (rat spleen)): 0.692 µM
Ki [5]: 0.279 µM
Ki [1]: 0.135 µM
Mean MAP ED20 (Anesthetized Dogs [3]): 80.5 nmol/kg
Ki [6]: 0.882 µM
ED (5 mmHg IUP increase) (Anesthetized Dogs [4]): 0.0121 µmol/kg
EC50 (α1D (rat aorta)): > 1000 µM

CCS(=O)(=O)Nc1cccc2c1CCC2c1c[nH]cn1.O=C(O)/C=C\C(=O)O (stereo not drawn) [Example 39, N-[1-(1H-imidazol4-yl)-2,3-dihydro-1H-inden-4-yl]ethanesulfonamide, maleate]
Mean MAP ED20 (Anesthetized Dogs [3]): 5.6 nmol/kg
ED (5 mmHg IUP increase) (Anesthetized Dogs [4]): 0.0044 µmol/kg

— patent US6503935B1, “Imidazoles and related compounds as α1A agonists” (Abbott Laboratories, priority 1998, dated 2003)
